Assay results: PubChem BioAssay (NCI)
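A five-concentration, 48-hour dose response in 96-well plates underlies each endpoint, interpolated linearly between surrounding concentrations. Here, GI50 denotes the concentration required for 50% inhibition of growth. The concentration for full growth arrest is given as TGI.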

What was measured:
Assay in all cases: NCI-60 cell line screen, 48 h
HOP-62 NSCLC = system: HOP-62 NSCLC
HOP-92 NSCLC = system: HOP-92 NSCLC
LOX IMVI melanoma = system: LOX IMVI melanoma
SF-268 CNS = system: SF-268 CNS
SK-OV-3 ovarian = system: SK-OV-3 ovarian
UO-31 renal = system: UO-31 renal
HCC-2998 colon = system: HCC-2998 colon
KM12 colon = system: KM12 colon
SF-295 CNS = system: SF-295 CNS
SNB-75 CNS = system: SNB-75 CNS

Structure (SMILES)	TGI (HOP-62 NSCLC) [µM]	TGI (HOP-92 NSCLC) [µM]	TGI (LOX IMVI melanoma) [µM]	TGI (SF-268 CNS) [µM]	TGI (SK-OV-3 ovarian) [µM]	TGI (UO-31 renal) [µM]	TGI (HCC-2998 colon) [µM]	TGI (KM12 colon) [µM]	TGI (SF-295 CNS) [µM]	TGI (SNB-75 CNS) [µM]	GI50 (HCC-2998 colon) [µM]	GI50 (HOP-62 NSCLC) [nM]	GI50 (KM12 colon) [µM]	GI50 (LOX IMVI melanoma) [µM]	GI50 (SF-268 CNS) [nM]	GI50 (SF-295 CNS) [µM]	GI50 (SK-OV-3 ovarian) [nM]	GI50 (SNB-75 CNS) [nM]	GI50 (UO-31 renal) [µM]	GI50 (HOP-92 NSCLC) [nM]
Cn1nc(-c2ccccc2)c(C(=O)/C=C/c2ccccc2)c(N2CCOCC2)c1=O	> 100	27.8	60.5	32.6	81	28.1	–	–	–	–	–	–	–	–	–	–	–	–	–	–
CN(C)CCCN1CCc2c([nH]c3ccccc23)C1c1cccnc1 (stereo unspecified)	> 100	> 100	> 100	–	> 100	> 100	> 100	> 100	> 100	> 100	–	–	–	–	–	–	–	–	–	–
CN(CCOc1ccc(C#N)cc1)CCOc1ccc(C#N)cc1	> 100	–	> 100	> 100	> 100	> 100	> 100	66.2	> 100	> 100	> 100	> 100000	16.6	> 100	> 100000	17.3	> 100000	> 100000	18.7	–
CC(C)NC(=O)OCCS(=O)c1c(Cl)c(Cl)nn1C (stereo unspecified)	> 100	–	> 100	> 100	> 100	> 100	–	> 100	> 100	> 100	–	–	–	–	–	–	–	–	–	–
O=C1CC[C@@H](S(=O)(=O)c2ccccc2)[C@@H](/C=C/c2ccccc2)O1	> 100	–	> 100	–	> 100	> 100	> 100	> 100	> 100	> 100	–	–	–	–	–	–	–	–	–	–
CN(C)CCOc1ccc2c(c1)C/C(=C/c1ncc([N+](=O)[O-])n1C)C2=O	11.4	5.77	14.4	9.1	15	3.61	–	11.6	20.3	7.54	–	–	–	–	–	–	–	–	–	–
CCCCCCCCCc1cc(=O)c2ccc(O)cc2o1	> 100	64.6	> 100	> 100	> 100	> 100	–	> 100	> 100	56.4	–	–	–	–	–	–	–	–	–	–
CCC12CCCC(=O)N1C(CO)C(c1ccccc1)O2 (stereo unspecified)	> 100	> 100	> 100	> 100	–	–	–	> 100	> 100	> 100	–	–	–	–	–	–	–	–	–	–
COc1cccc(C(=O)C2C(=O)N(C)CCc3ccccc32)c1OC (stereo unspecified)	> 100	> 100	> 100	–	> 100	> 100	–	> 100	–	> 100	–	–	–	–	–	–	–	–	–	–
CC(=O)n1c2ccccc2c2nc3nc(Oc4ccc(C)cc4)c4ccccc4c3cc21	> 100	–	> 100	> 100	> 100	> 100	> 100	> 100	> 100	> 100	–	–	–	–	–	–	–	–	–	–
O=C1C2=C(c3ccccc31)C(c1ccccc1)NC(=S)N2 (stereo unspecified)	> 100	97.1	–	> 100	> 100	> 100	> 100	> 100	> 100	80	–	–	–	–	–	–	–	–	–	–
CCCCCCCCCCCC[n+]1ccc(CCCCCCCCC)cc1	2.9	0.944	–	2.94	2.89	2.59	–	–	–	2.57	–	1410	–	–	1380	–	1510	1260	1.27	96.8
